Results reported in PMC2682652 (PLoS ONE, 2009).

Test system: intraperitoneal MDA-MB-435 xenograft tumors
Experiment: Tumor reduction study, peritoneal carcinomatosis
Format: in vivo, SCID-mice
Conditions: 6×1.85 MBq i.p., days 16-26 after inoculation, groups of 8 mice; p = 0.04
Protocol: To generate intraperitoneal xenograft tumors, 6–8 week old SCID-mice (Charles River, Sulzfeld, Germany) were injected i.p. with 1×10^7 MDA-MB435 tumor cells. Mice were weighed weekly and were sacrificed when the mean normal body weigth decreased <25% or when mice developped tumor side effects like ascites or reduced general condititon. All experiments were performed according to the German law for the protection of animals.
SCID-mice (Charles River, Sulzfeld, Germany) were injected i.p. with 1×10^7 MDA-MB-435 cells expressing firefly luciferase in 100 µl PBS. […] All experiments were performed three times. The animals were controlled daily until they were sacrificed.

O=C([O-])CN(CCN(CC(=O)[O-])CC(=O)[O-])CCN(CC(=O)[O-])CC(=O)[O-].[213Bi+3] [^213Bi-DTPA]
mean survival: 48 days
